Measured values as given in US5459063A, “Plasmodium falciparum ribonucleotide reductase DNA” (priority 1993, dated 1995).
Like-named read-outs stand apart in the source and are kept apart here. Square brackets hold non-standard residues; d marks the D form. Ends that are not written are not given here. Peptide text beside a SMILES is read from it. Phe(4-N3) = [N-]=[N+]=Nc1ccc(C[C@H](N)C(=O)O)cc1; Phe(4-NH2) = Nc1ccc(C[C@H](N)C(=O)O)cc1

B1: Ac-(FTLNADF) (peptide)
peptide: Ac-FTLNADF
B2: Ac-(F(4'-N3)TLDADF) (peptide)
peptide: Ac-[Phe(4-N3)]TLDADF
B3: Ac-(…) (peptide)
peptide: Ac-NSFTLDADF
B4: Ac-(LTLDADF) (peptide)
peptide: Ac-LTLDADF
B5: Ac-(FALDADF) (peptide)
peptide: Ac-FALDADF
B6: Ac-(FTVDADF) (peptide)
peptide: Ac-FTVDADF
B7: Ac-(FSLDADF) (peptide)
peptide: Ac-FSLDADF
B8: Ac-(FTLDF) (3 & 4 pos. del.) (peptide)
peptide: Ac-FTLDF
B9: Ac-(FLDADF) (6 pos. del.) (peptide)
peptide: Ac-FLDADF
B10: Ac-(FTLDAAF) (peptide)
peptide: Ac-FTLDAAF
B11: Ac-(FTLDDF) (3 pos. del.) (peptide)
peptide: Ac-FTLDDF
B12: Ac-(FTLDGDF) (peptide)
peptide: Ac-FTLDGDF
B13: Ac-(FTLDAEF) (peptide)
peptide: Ac-FTLDAEF
B14: Ac-(TLDADF) (peptide)
peptide: Ac-TLDADF
B15: Ac-(LDADF) (peptide)
peptide: Ac-LDADF
B16: Ac-(SFTLDADF) (peptide)
peptide: Ac-SFTLDADF
B17: FTLDADF (peptide)
peptide: FTLDADF
B18: Ac-(FTLAADF) (peptide)
peptide: Ac-FTLAADF
B19: Ac-(F(4'-NH2)TLDADF) (peptide)
peptide: Ac-[Phe(4-NH2)]TLDADF
B20: Ac-(FTADADF) (peptide)
peptide: Ac-FTADADF
B21: Ac-(FTLDLDF) (peptide)
peptide: Ac-FTLDLDF
B22: Ac-(…) (peptide)
peptide: Ac-FTLDADFAA
B23: Ac-(FTLDADL) (peptide)
peptide: Ac-FTLDADL
B24: Ac-(FTLDANF) (peptide)
peptide: Ac-FTLDANF

How the values were obtained:
[1] = target: T1, calf thymus/mouse ribonucleotide reductase (mammalian RR) (Bos taurus, UniProt Q32LP1); test: biochemical; conditions: for Percent RI (percent relative inhibitory potency): 100 × (IC50 Ac(FTLDADF)/IC50 peptide analog)
T1 sequence (Q32LP1 1-791): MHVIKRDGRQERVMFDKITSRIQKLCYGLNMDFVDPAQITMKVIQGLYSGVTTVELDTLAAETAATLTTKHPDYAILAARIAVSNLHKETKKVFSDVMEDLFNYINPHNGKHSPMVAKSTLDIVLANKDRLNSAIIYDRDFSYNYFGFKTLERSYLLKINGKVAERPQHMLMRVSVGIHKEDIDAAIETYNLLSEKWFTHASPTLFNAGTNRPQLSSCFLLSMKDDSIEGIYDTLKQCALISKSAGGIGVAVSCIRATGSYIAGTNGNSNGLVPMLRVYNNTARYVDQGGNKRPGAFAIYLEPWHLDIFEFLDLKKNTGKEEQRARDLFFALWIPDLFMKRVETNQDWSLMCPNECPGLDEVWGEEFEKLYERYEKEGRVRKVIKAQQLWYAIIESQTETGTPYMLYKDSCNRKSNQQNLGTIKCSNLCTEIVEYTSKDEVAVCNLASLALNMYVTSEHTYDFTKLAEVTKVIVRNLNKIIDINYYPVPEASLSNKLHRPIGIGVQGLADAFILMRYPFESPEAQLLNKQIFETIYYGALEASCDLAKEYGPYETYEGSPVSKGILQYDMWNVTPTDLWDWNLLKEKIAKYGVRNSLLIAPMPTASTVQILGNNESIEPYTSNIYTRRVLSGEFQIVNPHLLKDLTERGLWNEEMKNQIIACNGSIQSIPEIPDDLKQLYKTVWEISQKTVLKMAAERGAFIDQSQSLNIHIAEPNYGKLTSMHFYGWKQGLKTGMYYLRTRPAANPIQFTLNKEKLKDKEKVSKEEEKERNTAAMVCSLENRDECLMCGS
Excerpt: From two to four assays were run

Molecule | IC50 [1] [µM] | Percent RI (percent relative inhibitory potency) ([1]; Table 4, mammalian RR) [%] | Percent RI (percent relative inhibitory potency), mammalian RR activity (calf thymus R1 (calf)) [%] | also measured
CC(=O)N[C@@H](Cc1ccc(N)cc1)C(=O)N[C@H](C(=O)N[C@@H](CC(C)C)C(=O)N[C@@H](CC(=O)O)C(=O)N[C@@H](C)C(=O)N[C@@H](CC(=O)O)C(=O)N[C@@H](Cc1ccccc1)C(=O)O)[C@@H](C)O [Peptide 9, Ac- (F(4'-NH2)TLDADF)] (Ac-[Phe(4-NH2)]TLDADF-OH) | 100 | 10 | – | –
CC(=O)N[C@@H](Cc1ccc(N=[N+]=[N-])cc1)C(=O)N[C@H](C(=O)N[C@@H](CC(C)C)C(=O)N[C@@H](CC(=O)O)C(=O)N[C@@H](C)C(=O)N[C@@H](CC(=O)O)C(=O)N[C@@H](Cc1ccccc1)C(=O)O)[C@@H](C)O [Peptide 10, Ac- (F(4'-N3)TLDADF)] (Ac-[Phe(4-N3)]TLDADF-OH) | 100 | 10 | – | –
Ac- (FTFTADF) [Peptide 14] | – | 18 ± 4.2 | – | IC50 ([1]; read-out: IC50, concentration of peptide producing 50% inhibition of activity, Table 4, mammalian RR, Dixon plots of 4-6 concentration points, ranges are two independent determinations on different days): 48 to 58 µM
Ac-(FTFTADF) (peptide) | – | – | 18 | –
Ac-(FTLDALF) (peptide) | – | – | 35 | –
Ac-FALDADF [Peptide 12, Ac- (FALDADF)] | 35 to 40 | 24 ± 4.1 | – | –
Ac-FCLNTEF [Ac-(SEQ ID NO:7), Ac- (FCLNTEF)] | – | – | – | IC50 ([1]; IC50 on mammalian RR activity, Example 54 text, peptide bound to purified calf thymus R1 before adding recombinant mouse R2): 160 µM; times less potent an inhibitor on mammalian RR activity than Ac-(SEQ ID NO:6) ([1]; relative to Ac-(SEQ ID NO:6)): 8-16 times
Ac-FLDADF [Peptide 25, Ac- (FLDADF)] | 412 | 2.5 | – | –
Ac-FSLDADF [Peptide 11, Ac- (FSLDADF)] | 40 to 42 | 25 ± 1.1 | – | –
Ac-FTADADF [Peptide 15, Ac- (FTADADF)] | 207 | 4.9 ± 0.60 | – | –
Ac-FTFNEDF [Peptide 30, Ac- (FTFNEDF)] | 100 | – | – | –
Ac-FTLAADF [Peptide 17, Ac- (FTLAADF)] | 286 to 336 | 2.9 ± 0.4 | – | –
Ac-FTLDAAF [Peptide 23, Ac- (FTLDAAF)] | 34 to 35 | 28 ± 1.3 | – | –
Ac-FTLDADFAA [Peptide 28] | 500 | 2.1 | – | –
Ac-FTLDADL [Peptide 24, Ac- (FTLDADL)] | > 400 | < 3 | – | –
Ac-FTLDAEF [Peptide 20, Ac- (FTLDAEF)] | 450 to 620 | 1.7 ± 0.15 | – | –
Ac-FTLDALF [Peptide 22, Ac- (FTLDALF)] | 29 to 30 | 35 ± 5.0 | – | –
Ac-FTLDANF [Peptide 21, Ac- (FTLDANF)] | 32 to 38 | 23 ± 1.0 | – | –
Ac-FTLDDF [Peptide 26, Ac- (FTLDDF)] | 322 | 3 | – | –

Molecule | IC50 [1] [µM] | Percent RI (percent relative inhibitory potency) ([1]; Table 4, mammalian RR) [%] | Percent RI (percent relative inhibitory potency), mammalian RR activity (calf thymus R1 (calf)) [%] | also measured
Ac-FTLDF [Peptide 27, Ac- (FTLDF)] | 364 to 460 | 2.5 ± 0.18 | – | –
Ac-FTLDGDF [Peptide 18, Ac- (FTLDGDF)] | 110 to 230 | 9 ± 0.6 | – | –
Ac-FTLDLDF [Peptide 19, Ac- (FTLDLDF)] | 28 | 35 | – | –
Ac-FTLNADF [Peptide 16, Ac- (FTLNADF)] | 25 to 29 | 40 ± 2.4 | – | –
Ac-FTVDADF [Peptide 13, Ac- (FTVDADF)] | 30 | 35 | – | –
Ac-LDADF [Peptide 7, Ac- (LDADF)] | > 400 | < 3 | – | –
Ac-LTLDADF [Peptide 8, Ac- (LTLDADF)] | > 400 | < 3 | – | –
Ac-NSFTLDADF [Peptide 1] | 9 to 15 | 100 | – | –
Ac-SFTLDADF [Peptide 2] | 8 to 20 | 100 | – | –
Ac-TLDADF [Peptide 6, Ac- (TLDADF)] | > 400 | < 3 | – | –
FTLDADF [Peptide 5, FTLDADF] | > 400 | < 3 | – | –
SFTLDADF (peptide) | – | – | 25 | IC50, inhibition of mammalian RR activity (calf thymus R1 (calf)): 80 µM
SFTLDADF [Peptide 3] | 80 | 25 | – | –
B1 | – | – | 40 | –
B2 | – | – | 10 | IC50, inhibition of mammalian RR activity (calf thymus R1 (calf)): 100 µM
B3 | – | – | 100 | –
B4 | – | – | < 3 | IC50, inhibition of mammalian RR activity (calf thymus R1 (calf)): > 400 µM
B5 | – | – | 24 | –
B6 | – | – | 35 | IC50, inhibition of mammalian RR activity (calf thymus R1 (calf)): 30 µM

Molecule | IC50 [1] [µM] | Percent RI (percent relative inhibitory potency) ([1]; Table 4, mammalian RR) [%] | Percent RI (percent relative inhibitory potency), mammalian RR activity (calf thymus R1 (calf)) [%] | also measured
B7 | – | – | 25 | –
B8 | – | – | 2.5 | –
B9 | – | – | 2.5 | IC50, inhibition of mammalian RR activity (calf thymus R1 (calf)): 412 µM
B10 | – | – | 28 | –
B11 | – | – | 3 | IC50, inhibition of mammalian RR activity (calf thymus R1 (calf)): 322 µM
B12 | – | – | 9 | –
B13 | – | – | 1.7 | –
B14 | – | – | < 3 | IC50, inhibition of mammalian RR activity (calf thymus R1 (calf)): > 400 µM
B15 | – | – | < 3 | IC50, inhibition of mammalian RR activity (calf thymus R1 (calf)): > 400 µM
B16 | – | – | 100 | –
B17 | – | – | < 3 | IC50, inhibition of mammalian RR activity (calf thymus R1 (calf)): > 400 µM
B18 | – | – | 2.9 | –
B19 | – | – | 10 | IC50, inhibition of mammalian RR activity (calf thymus R1 (calf)): 100 µM
B20 | – | – | 4.9 | IC50, inhibition of mammalian RR activity (calf thymus R1 (calf)): 207 µM
B21 | – | – | 35 | IC50, inhibition of mammalian RR activity (calf thymus R1 (calf)): 28 µM
B22 | – | – | 2.1 | IC50, inhibition of mammalian RR activity (calf thymus R1 (calf)): 500 µM
B23 | – | – | < 3 | IC50, inhibition of mammalian RR activity (calf thymus R1 (calf)): > 400 µM
B24 | – | – | 23 | –
